Measurements from ChEMBL document CHEMBL3817766, “Application of the Huisgen cycloaddition and 'click' reaction toward various 1,2,3-triazoles as HIV non-nucleoside reverse transcriptase inhibitors” (Bioorg Med Chem Lett, 2016).

How the values were obtained:
[1] = Inhibition of HIV reverse transcriptase transfected in HEK293T cells assessed as reduction in viral replication measured at 48 hrs postinfection by luciferase reporter based single-cycle non replicative phenotypic assay; format: cell-based; settings: Human immunodeficiency virus 1, HEK-293T
[2] = Cytotoxicity against mouse EL4.3 cells assessed as reduction in cell viability by MTT assay; format: cell-based

## CCc1nnn(Cc2ccccc2)c1CCO
[1]; read-out: IC50
  IC50: > 100 µM
[2]
  CC50: > 100 µM

## Cc1cc(C)cc(Cn2cc(CO)nn2)c1
[1]; read-out: IC50
  IC50: 27.8 µM
[2]
  CC50: > 100 µM

## OCc1cn(Cc2cc(C(F)(F)F)cc(C(F)(F)F)c2)nn1
[1]; read-out: IC50
  IC50: > 24.5 µM
[2]
  CC50: > 53.4 µM

## N#Cc1cccc(Cn2cc(CCO)nn2)c1
[1]; read-out: IC50
  IC50: > 83.5 µM
[2]
  CC50: > 100 µM

## CCc1c(CCO)nnn1Cc1cc(Cl)cc(Cl)c1
[1]; read-out: IC50
  IC50: 45.2 µM
[2]
  CC50: > 100 µM

## CCc1nnn(Cc2cc(Cl)cc(Cl)c2)c1CCO
[1]; read-out: IC50
  IC50: 72.6 µM
[2]
  CC50: > 100 µM

## CCc1nn(CC)nc1C(OC)c1cc(Cl)cc(Cl)c1 (stereo not drawn)
[1]; read-out: IC50
  IC50: > 49 µM
[2]
  CC50: 89 µM

## OCc1cn(Cc2ccccc2)nn1
[1]; read-out: IC50
  IC50: > 83.5 µM
[2]
  CC50: > 100 µM

## CCc1nnn(Cc2cc(C)cc(C)c2)c1CCO
[1]; read-out: IC50
  IC50: > 100 µM
[2]
  CC50: > 100 µM

## CCc1nn(CCO)nc1C(OC)c1cc(Cl)cc(Cl)c1 (stereo not drawn)
[1]; read-out: IC50
  IC50: 14.1 µM
[2]
  CC50: 95.1 µM

## CCc1nn(CCO)nc1Cc1cc(C)cc(C)c1
[1]; read-out: IC50
  IC50: > 100 µM
[2]
  CC50: > 100 µM

## CCc1nnn(Cc2cccc(C#N)c2)c1CCO
[1]; read-out: IC50
  IC50: > 100 µM
[2]
  CC50: > 100 µM

## CCc1nn(CCO)nc1Cc1cc(Cl)cc(Cl)c1
[1]; read-out: IC50
  IC50: 23.8 µM
[2]
  CC50: 84.7 µM

## CCc1c(CCO)nnn1Cc1ccccc1
[1]; read-out: IC50
  IC50: > 100 µM
[2]
  CC50: > 100 µM

## CCc1nn(CCO)nc1Cc1cccc(C#N)c1
[1]; read-out: IC50
  IC50: > 100 µM
[2]
  CC50: > 100 µM

## CCc1c(CCO)nnn1Cc1cccc(C#N)c1
[1]; read-out: IC50
  IC50: > 100 µM
[2]
  CC50: > 100 µM

## Cc1ccnc2c1NC(=O)c1cccnc1N2C1CC1 [NEVIRAPINE]
[1]
  IC50: 0.091 µM
